Experimental data taken from the NIST ThermoML archive (doi:10.1016/j.tca.2019.178383).
Numbers after ± are expanded uncertainties.

Test: xn = mol fraction of the nth substance listed
Conditions: for mass density: 100 kPa, Liquid, Vibrating tube method; for surface tension liquid-gas: Maximal bubble pressure

CCn1cc[n+](CCOC)c1.O=S(=O)([O-])C(F)(F)F + CCCO
Conditions | mass density, 303.15 K [kg/m3] | mass density, 308.15 K [kg/m3] | mass density, 313.15 K [kg/m3] | mass density, 318.15 K [kg/m3] | surface tension liquid-gas, 308.15 K [mN/m] | surface tension liquid-gas, 313.15 K [mN/m] | surface tension liquid-gas, 318.15 K [mN/m]
x1 = 0.0987 | 931.974 ± 2.7 | 927.821 ± 2.7 | 923.647 ± 2.7 | 919.45 ± 2.7 | 22.1 ± 1.5 | 21.7 ± 1.5 | 21.3 ± 1.5
x1 = 0.1999 | 1030.91 ± 2.1 | 1026.69 ± 2.1 | 1022.48 ± 2.1 | 1018.44 ± 2.1 | 22.7 ± 1.5 | 22.4 ± 1.5 | 22.1 ± 1.5
x1 = 0.2982 | 1101.93 ± 1.8 | 1097.7 ± 1.8 | 1093.47 ± 1.8 | 1089.25 ± 1.8 | 23.6 ± 1.5 | 23.2 ± 1.5 | 22.8 ± 1.5
x1 = 0.3994 | 1158.75 ± 1.7 | 1154.52 ± 1.7 | 1150.29 ± 1.7 | 1146.1 ± 1.7 | 24.8 ± 1.5 | 24.5 ± 1.5 | 24.2 ± 1.5
x1 = 0.499 | 1203.08 ± 1.5 | 1198.86 ± 1.5 | 1194.66 ± 1.5 | 1190.46 ± 1.5 | 26.4 ± 1.5 | 26.1 ± 1.5 | 25.8 ± 1.5
x1 = 0.5993 | 1239.64 ± 1.5 | 1235.43 ± 1.5 | 1231.23 ± 1.5 | 1227.04 ± 1.5 | 28.3 ± 1.5 | 28 ± 1.5 | 27.8 ± 1.5
x1 = 0.6979 | 1269.36 ± 1.4 | 1265.15 ± 1.4 | 1260.96 ± 1.4 | 1256.78 ± 1.4 | 30.4 ± 1.5 | 30 ± 1.5 | 29.7 ± 1.5
x1 = 0.8009 | 1295.75 ± 1.4 | 1291.54 ± 1.4 | 1287.35 ± 1.4 | 1283.18 ± 1.4 | 32 ± 1.5 | 31.7 ± 1.5 | 31.4 ± 1.5
x1 = 0.8992 | 1317.21 ± 1.4 | 1313 ± 1.4 | 1308.81 ± 1.4 | 1304.63 ± 1.4 | 33.9 ± 1.5 | 33.7 ± 1.5 | 33.5 ± 1.5
x1 = 1 | 1336.17 ± 1.4 | 1331.96 ± 1.4 | 1327.77 ± 1.4 | 1323.6 ± 1.4 | 35.3 ± 1.5 | 35.1 ± 1.5 | 34.9 ± 1.5
